# Measured values: patent US8410141B2, “Insecticidal arylpyrrolines” (Bayer Cropscience AG, priority 2009, dated 2013)
# Assays:
# Format in all cases: in vivo
# [1] = tested on: Tobacco Cutworm (Spodoptera litura) Larvae; test: Test against tobacco cutworm (Spodoptera litura) larvae, leaf immersion; conditions: 100 ppm; sweet potato leaves immersed; third-instar larvae; after 7 days
# Experimental: (§1) Unless not mentioned otherwise, the test solutions were prepared as follows:
# (§2) Containing as solvent: Dimethylformamide, 3 parts by weight; and as emulsifier: Polyoxyethylene alkyl phenyl ether, 1 part by weight. To prepare the test solution, 1 part by weight of an active compound is mixed with the above-mentioned amount of solvent containing the above-mentioned amount of emulsifier, and the mixture is diluted with water to the desired concentration.
# The leaves of sweet potato were immersed in the test solution at the appropriate concentration, and the leaves were dried in air. The leaves were then placed in a petri dish having a diameter of 9 cm, and ten third-instar larvae of tobacco cutworm were released therein. The petri dish was placed in a temperature-controlled chamber at 25° C. After 2 days and 4 days sweet potato leaves were additionally added. After 7 days, the number of dead larvae was counted to calculate the insecticidal activity. An insecticidal activity of 100% means that all larvae were killed, whereas an insecticidal activity of 0% means that no larva was killed. In the current test, the results of two petri dishes for each partition were averaged.
# [2] = tested on: Two-Spotted Spider Mite (Tetranychus urticae); test: Test against two-spotted spider mite (Tetranychus urticae), spray; conditions: 100 ppm; sprayed on kidney bean; adult mites; after 7 days
# Experimental: as §1, §2
# 50 to 100 adult two-spotted spider mites were inoculated onto the leaves of kidney beans at the two-true leaf stage, which plant had been cultivated in a pot having a diameter of 6 cm. After one day, test solution at the appropriate concentration was sprayed thereon in a sufficient amount using a spray gun. After the spraying, the plant pot was placed inside a greenhouse, and after 7 days, the acaricidal activity was calculated. An acaricidal activity of 100% means that all mites were killed, whereas an acaricidal activity of 0% means that no mite was killed.
# [3] = tested on: Cucurbit Leaf Beetle (Aulacophora femoralis); test: Test against cucurbit leaf beetle (Aulacophora femoralis), leaf immersion; conditions: 100 ppm; cucumber leaves immersed; second-instar larvae; after 7 days
# Experimental: as §1, §2
# Cucumber leaves were immersed in the test solution at the appropriate concentration, and the leaves were dried in air. The leaves were then placed in a plastic cup containing sterilized black soil, and five second-instar larvae of cucurbit leaf beetle were released therein. The plastic cup was placed in a temperature-controlled chamber at 25° C. After 7 days, the number of dead larvae was counted, and thus the insecticidal activity was calculated. An insecticidal activity of 100% means that all beetles were killed, whereas an insecticidal activity of 0% means that no beetle was killed.
# [4] = tested on: Tobacco Cutworm (Spodoptera litura) Larvae; test: Test against tobacco cutworm larvae, root systemicity; conditions: 100 ppm; broccoli seedling roots dipped 3 days; second-instar larvae; after 4 days
# Experimental: as §1, §2
# The roots of seedling of broccoli at 1.2 leaf stage were dipped into the test solution at the appropriate concentration. After 3 days, the leaves were cut and placed in a petri dish having a diameter of 9 cm. And then five second-instar larvae of tobacco cutworm were released therein. The petri dish was placed in a temperature-controlled room at 25° C. After 4 days, the number of dead larvae was counted, to calculate the insecticidal activity. An insecticidal activity of 100% means that all larvae were killed, whereas an insecticidal activity of 0% means that no larva was killed.
# [5] = tested on: Musca domestica; test: Musca domestica test; conditions: 100 ppm; sponge with sugar and compound solution; adults; after 2 days
# Experimental: Solvent: dimethyl sulfoxide
# To produce a suitable preparation of active compound, 10 mg of active compound are dissolved in 0.5 ml solvent, and the concentrate is diluted with water to the desired concentration. Prior to the assay, a piece of kitchen sponge is soaked with a mixture of sugar and compound solution and placed into a container. 10 adults (Musca domestica) are placed into the container and closed with a perforated lid. After 2 days mortality in % is determined. 100% means that all the flies have been killed; 0% means that none of the flies have been killed.
smiles,measurement,setting,value
N#Cc1cc(C2=NCC(c3ccc(F)c(C(F)(F)F)c3)(C(F)(F)F)C2)ccc1-n1cncn1 (stereo not drawn) [1-4],insecticidal activity,[1],100%
same,acaricidal activity rate,[2],100%
same,insecticidal activity,[3],100%
same,insecticidal activity,[4],100%
N#Cc1cc(C2=NCC(c3cc(Cl)c(Br)c(Cl)c3)(C(F)(F)F)C2)ccc1-n1cncn1 (stereo not drawn) [1-15],insecticidal activity,[1],100%
same,acaricidal activity rate,[2],100%
same,insecticidal activity,[3],100%
N#Cc1cc(C2=NCC(c3cccc(C(F)(F)F)c3F)(C(F)(F)F)C2)ccc1-n1cncn1 (stereo not drawn) [1-19],insecticidal activity,[1],100%
same,acaricidal activity rate,[2],100%
same,insecticidal activity,[3],100%
same,mortality,[5],90%
FC(F)(F)C1(c2cc(Cl)c(Cl)c(Cl)c2)CN=C(c2ccc(-n3cncn3)cc2)C1 (stereo not drawn) [1-27],insecticidal activity,[1],100%
same,acaricidal activity rate,[2],100%
same,insecticidal activity,[3],100%
FC(F)(F)C1(c2cc(Cl)c(Cl)c(Cl)c2)CN=C(c2ccc(-n3cncn3)c(Br)c2)C1 (stereo not drawn) [1-31],insecticidal activity,[1],100%
same,acaricidal activity rate,[2],100%
same,insecticidal activity,[3],100%
FC(F)(F)c1cc(C2=NCC(c3cc(Cl)c(Cl)c(Cl)c3)(C(F)(F)F)C2)ccc1-n1cncn1 (stereo not drawn) [1-34],insecticidal activity,[1],100%
same,insecticidal activity,[3],100%
O=[N+]([O-])c1cc(C2=NCC(c3cc(Cl)c(Cl)c(Cl)c3)(C(F)(F)F)C2)ccc1-n1cncn1 (stereo not drawn) [1-35],insecticidal activity,[1],100%
same,acaricidal activity rate,[2],100%
same,insecticidal activity,[3],100%
N#Cc1cc(C2=NCC(c3cc(C(F)(F)F)cc(Cl)n3)(C(F)(F)F)C2)ccc1-n1cncn1 (stereo not drawn) [1-84],insecticidal activity,[1],100%
same,acaricidal activity rate,[2],100%
same,insecticidal activity,[3],100%
same,insecticidal activity,[4],100%
FC(F)(F)C1(c2cc(Cl)c(Cl)c(Cl)c2)CN=C(c2ccc(-n3cncn3)nc2)C1 (stereo not drawn) [1-110],insecticidal activity,[1],100%
same,acaricidal activity rate,[2],100%
same,insecticidal activity,[3],100%
N#Cc1cc(C2=NCC(c3ccnc(C(F)(F)C(F)(F)F)c3)(C(F)(F)F)C2)ccc1-n1cncn1 (stereo not drawn) [1-156],insecticidal activity,[1],100%
same,acaricidal activity rate,[2],100%
same,insecticidal activity,[3],100%
Cc1ccc(C2(C(F)(F)F)CN=C(c3ccc(-n4cncn4)c(C#N)c3)C2)cc1[N+](=O)[O-] (stereo not drawn) [1-174],acaricidal activity rate,[2],100%
Cc1cc([N+](=O)[O-])cc(C2(C(F)(F)F)CN=C(c3ccc(-n4cncn4)c(C#N)c3)C2)c1 (stereo not drawn) [1-180],acaricidal activity rate,[2],100%
N#Cc1cc(C2=NCC(c3cncc(C(F)(F)F)c3)(C(F)(F)F)C2)ccc1-n1cncn1 (stereo not drawn) [1-481],insecticidal activity,[1],100%
same,insecticidal activity,[3],100%
N#Cc1cc(C2=NCC(c3cc(C(F)(F)F)ccc3F)(C(F)(F)F)C2)ccc1-n1cncn1 (stereo not drawn) [1-482],insecticidal activity,[1],100%
same,acaricidal activity rate,[2],100%
same,insecticidal activity,[3],100%
N#Cc1cc(C2=NCC(c3ccnc(Cl)c3)(C(F)(F)F)C2)ccc1-n1cncn1 (stereo not drawn) [1-484],acaricidal activity rate,[2],100%
same,insecticidal activity,[3],100%
N#Cc1cc(C2=NCC(c3cc(Cl)cc(Cl)c3Cl)(C(F)(F)F)C2)ccc1-n1cncn1 (stereo not drawn) [1-488],insecticidal activity,[1],100%
same,acaricidal activity rate,[2],100%
same,insecticidal activity,[3],100%
FC(F)(F)C1(c2cc(Cl)nc(Cl)c2)CN=C(c2cnc(-n3cncn3)c(Cl)c2)C1 (stereo not drawn) [1-490],insecticidal activity,[1],100%
same,insecticidal activity,[3],100%
FC(F)(F)c1cc(C(F)(F)F)cc(C2(C(F)(F)F)CN=C(c3cnc(-n4cncn4)c(Cl)c3)C2)c1 (stereo not drawn) [1-491],insecticidal activity,[1],100%
same,insecticidal activity,[3],100%
N#Cc1cc(C2=NCC(c3cc(Cl)nc(C(F)(F)F)c3)(C(F)(F)F)C2)ccc1-n1cncn1 (stereo not drawn) [1-492],insecticidal activity,[1],100%
same,acaricidal activity rate,[2],100%
same,insecticidal activity,[3],100%
same,insecticidal activity,[4],100%
N#Cc1cc(C2=NCC(c3cc(C(F)(F)F)cc(C(F)(F)F)c3)(C(F)(F)F)C2)cnc1-n1cncn1 (stereo not drawn) [1-494],insecticidal activity,[1],100%
same,insecticidal activity,[3],100%
N#Cc1cc(C2=NCC(c3cc(Br)c4c(c3)OC(F)(F)O4)(C(F)(F)F)C2)ccc1-n1cncn1 (stereo not drawn) [1-496],insecticidal activity,[1],100%
same,acaricidal activity rate,[2],100%
same,insecticidal activity,[3],100%
N#Cc1cc(C2=NCC(c3cc(OC(F)F)cc(C(F)(F)F)c3)(C(F)(F)F)C2)ccc1-n1cncn1 (stereo not drawn) [1-497],insecticidal activity,[1],100%
same,insecticidal activity,[3],100%
same,insecticidal activity,[4],100%
N#Cc1cc(C2=NCC(c3cc(Cl)cc(Cl)c3)(C(F)(F)Cl)C2)ccc1-n1cncn1 (stereo not drawn) [1-506],insecticidal activity,[1],100%
same,acaricidal activity rate,[2],100%
same,insecticidal activity,[3],100%
Cc1cc(C2=NCC(c3cc(Cl)c(Cl)c(Cl)c3)(C(F)(F)F)C2)ccc1CN (stereo not drawn) [2-76],insecticidal activity,[1],100%
CC(=O)NCc1ccc(C2=NCC(c3cc(Cl)c(Cl)c(Cl)c3)(C(F)(F)F)C2)cc1 (stereo not drawn) [2-168],insecticidal activity,[1],100%
same,acaricidal activity rate,[2],100%
same,insecticidal activity,[3],100%
CCC(=O)NCc1ccc(C2=NCC(c3cc(Cl)c(Cl)c(Cl)c3)(C(F)(F)F)C2)cc1 (stereo not drawn) [2-169],insecticidal activity,[1],100%
same,acaricidal activity rate,[2],100%
same,insecticidal activity,[3],100%
O=C(CC(F)(F)F)NCc1ccc(C2=NCC(c3cc(Cl)c(Cl)c(Cl)c3)(C(F)(F)F)C2)cc1 (stereo not drawn) [2-170],insecticidal activity,[1],100%
same,acaricidal activity rate,[2],100%
same,insecticidal activity,[3],100%
Cc1cc(C2=NCC(c3cc(C(F)(F)F)cc(C(F)(F)F)c3)(C(F)(F)F)C2)ccc1CN (stereo not drawn) [2-547],insecticidal activity,[1],100%
Cc1cc(C2=NCC(c3cc(C(F)(F)F)cc(C(F)(F)F)c3)(C(F)(F)F)C2)ccc1CNC(=O)OC(C)(C)C (stereo not drawn) [2-548],insecticidal activity,[1],100%
same,acaricidal activity rate,[2],100%
same,insecticidal activity,[3],100%
CCC(=O)NCc1ccc(C2=NCC(c3cc(C(F)(F)F)cc(C(F)(F)F)c3)(C(F)(F)F)C2)cc1 (stereo not drawn) [2-647],insecticidal activity,[1],100%
same,acaricidal activity rate,[2],100%
same,insecticidal activity,[3],100%
same,insecticidal activity,[4],100%
O=C(CC(F)(F)F)NCc1ccc(C2=NCC(c3cc(C(F)(F)F)cc(C(F)(F)F)c3)(C(F)(F)F)C2)cc1 (stereo not drawn) [2-648],insecticidal activity,[1],100%
same,acaricidal activity rate,[2],100%
same,insecticidal activity,[3],100%
same,insecticidal activity,[4],100%
CCC(=O)NCc1ccc(C2=NCC(c3cc(Cl)nc(Cl)c3)(C(F)(F)F)C2)cc1C(F)(F)F (stereo not drawn) [2-2151],insecticidal activity,[1],100%
same,acaricidal activity rate,[2],100%
same,insecticidal activity,[3],100%
CC(=O)NCc1ccc(C2=NCC(c3cc(C(F)(F)F)nc(C(F)(F)F)c3)(C(F)(F)F)C2)cc1Br (stereo not drawn) [2-2732],insecticidal activity,[1],100%
same,acaricidal activity rate,[2],100%
same,insecticidal activity,[3],100%
"CCC(=O)NCc1ccc(C2=NCC(c3cc(C(F)(F)F)nc(C(F)(F)F)c3)(C(F)(F)F)C2)cc1Br (stereo not drawn) [2-2733, N-(4-{3-[2,6-bis(trifluoromethyl)pyridin-4-yl]-3-(trifluoromethyl)-3,4-dihydro-2H-pyrrol-5-yl}-2-bromobenzyl)propanamide]",insecticidal activity,[1],100%
same,acaricidal activity rate,[2],100%
same,insecticidal activity,[3],100%
CSCC(=O)NCc1ccc(C2=NCC(c3cc(C(F)(F)F)nc(C(F)(F)F)c3)(C(F)(F)F)C2)cc1Br (stereo not drawn) [2-2737],insecticidal activity,[1],100%
same,acaricidal activity rate,[2],100%
same,insecticidal activity,[3],100%
CS(=O)(=O)CC(=O)NCc1ccc(C2=NCC(c3cc(C(F)(F)F)nc(C(F)(F)F)c3)(C(F)(F)F)C2)cc1Br (stereo not drawn) [2-2739],insecticidal activity,[1],100%
same,acaricidal activity rate,[2],100%
same,insecticidal activity,[3],100%
CCC(=O)NC(C)c1ccc(C2=NCC(c3cc(C(F)(F)F)nc(C(F)(F)F)c3)(C(F)(F)F)C2)cc1 (stereo not drawn) [2-2872],insecticidal activity,[1],100%
same,insecticidal activity,[4],100%
